Experimental data as given in US20220265775A1, “COMPOSITIONS AND METHODS FOR TREATING PULMONARY EDEMA OR LUNG INFLAMMATION” (priority 2019, published 2022).

Tested on: RLE-6TN cells
Test: RLE-6TN cell survival under hyperoxia and recovery, viable cells counted by trypan blue exclusion
Type: cell-based, rat
Experimental: FIG. 7. […] The cells were cultured in DMEM/F12 with 10% FBS in 21% O2 and 5% CO2 overnight. […] The viable cells are counted immediately after 72-hour hyperoxia exposure. Cell viability is assessed with trypan blue. The amount of viable cells under specific conditions is presented as a percentage of the cell number from hyperoxia alone. Data are mean±s.d. of four independent experiments with *=P<0.05; **=P<0.01.
FIG. 8. […] In both (A) and (B), the number of viable cells under specific conditions is presented as a percentage of the cell number related to hyperoxia alone in the same experiment. Data are mean s.d. of four independent experiments with *=P<0.05; **=P<0.01.
FIG. 10. HO-1 upregulation is required for T3-increased RLE-6TN cell survival in hyperoxia. […] The cells were then collected for Western Blot analysis. (B) The cells were incubated in 21% O2 and 5% CO2 for 72 hours in the present of HO-1 inhibitor Tin Protoporphyrin IX (10^−6M). […] Cell viability is assessed with trypan blue. The number of viable cells under specific conditions is presented as a percentage of the cell number related to hyperoxia alone. Data are mean±s.d. of three independent experiments with *=P<0.05; **=P<0.01.
FIG. 11. PI3K inhibitor wortmannin blocked T3-induced cell survival in hyperoxia. […] Cell viability is assessed with trypan blue. The number of viable cells under specific conditions is presented as a percentage of the cell number related to hyperoxia alone. Data are mean±s.d. of four independent experiments with *=P<0.05; **=P<0.01.
At the end of the hyperoxia exposure period, the viable cells were counted by trypan blue dye exclusion.

Compound	number of viable AT2 cells at 48 hours of recovery (90% oxygen for 24 or 48 hours, compound present only during recovery in 21% O2)	effect on cell survival under hyperoxia (90% oxygen for 72 hours, 10^−6M)	AT2 cell number in room air (21% O2 for 72 hours, Tin Protoporphyrin IX 10^−6M)	effect on T3-caused increase in cell survival in hyperoxia (90% O2 72 hours, T3 10^−6M with Tin Protoporphyrin IX 10^−6M)
N[C@@H](Cc1ccc(Oc2cc(I)c(O)c(I)c2)c(I)c1)C(=O)O [rT3]	no protective effect	no role in cell survival	–	–
C=Cc1c2[n-]c(c1C)/C=c1\[n-]/c(c(C)c1C=C)=C\c1[n-]c(c(CCC(=O)O)c1C)C=c1[n-]/c(c(C)c1CCC(=O)O)=C\2.[Sn+4] [Tin protoporphyrin, Tin Protoporphyrin IX]	–	–	no effect on AT2 cell number in room air	blocked the T3-caused increase in cell survival and augmented cell death
